We go through 3 compounds from publication PMC9256669, “Monomethyl auristatin antibody and peptide drug conjugates for trimodal cancer chemo-radio-immunotherapy” (Nature Communications, 2022).

The subject of one series is MOC2 tumors. In words: Orthotopic syngeneic tongue tumor therapy, tumor volumes. Particulars: single 2.5 nmole i.v. injection. The series is classed as in vivo, C57BL/6 mice. An excerpt:
Orthotopic tongue xenograft tumors were established in 6-week-old NOD SCID mice by injecting 150,000 CAL27 parental (WT) or PIK3CA H1047R-expressing cells. […] On the last day of tumor xenograft measurements, mice were euthanized, tongues resected, imaged, and fixed. […] IR was delivered as 2 parallel opposed fields.
6-week-old C57BL/6 female mice were implanted with 50,000 MOC2 cells into the tongue. […] Five days after treatment, tumors were isolated, minced, and re-suspended in FBS-free DMEM media supplemented with components of MACs tumor dissociation kit. Tissues were incubated for 15 min at 37 °C and mechanically digested using the gentle MACs Octo Dissociator. Digested samples were then passed through a 100-µm strainer to acquire a single-cell. For viability staining, cells were washed in PBS and stained with Cell-ID Cisplatin (DVS Sciences) to a final concentration of 5 μM for 5 min at room temperature. Cisplatin was quenched when cells were washed and stained with the antibody cocktail. Antibodies were prepared in Maxpar cell staining buffer (PBS with 2 mM EDTA, 0.1% BSA, 0.05% NaN3) and incubated with cells for 15 min at room temperature. […] Antibodies (clone in parenthesis) used for CyTOF included B220 (RA3-6B2), CD117(2B8), CD11c (N418), CD25 (3C7), CD4 (RM4-5), CD45 (30-F11), CD8a (53-6.7), MHC-II (M5/114.15.2), NKP46 (29A1.4), TCRb (H57-597) from Fluidigm. […]

Series [1] is described as follows: Tumor drug measurement (MMAE by LC-MS/MS) after CDX3379-MMAE. The series is classed as in vivo, mouse. Also on record: unit not given here. As to conditions: orthotopic CAL27 tongue xenografts (methods: CAL27 PIK3CA H1047R cells, NOD SCID), 2.5 nmoles CDX3379-MMAE i.v., tumors harvested 48 h, one value per tumor, vehicle 1.606, 2.873, a reviewer reads roughly 100 nM. As to the method:
For CDX3379-MMAE drug measurements, 6-week-old female NOD SCID (University of California San Diego Animal Care Program) were injected orthotopically into the tongue with 150,000 CAL27 PIK3CA H1047R expressing cells in 20 µl of DMEM. After 10 days, mice were intravenously (i.v.) injected through the tail vein with 2.5 nmole of CDX3379-MMAE in 50 µl of PBS. […] Tumors were excised on days indicated in figure legends, weighed, and homogenized in 10 v/w of 2% acetic acid in 1:1 acetonitrile:water with a point sonicator (Fisher Scientific) using an amplitude range of 5–15% for 20 s on ice. Homogenates were centrifuged ([…], 10 min), supernatants collected for drug concentration measurements using LC–MS/MS. Drug concentration was determined by LC–MS/MS with Luna-2 C18 column and Agilent Trap XCT mass spectrometer. For MMAE tissue concentrations, integrated ion currents for m/z 682.4, 496.4 and m/z 686.4, 506.4 extracted from fragmented m/z 740.4 and 718.4, respectively, were combined. The total ion current was fit to a standard curve generated for each drug to quantitate tissue drug concentration.

A further series has as its system Detroit 562. Nature of the series: Cytotoxicity, Alamar Blue assay. Particulars: Detroit 562, 72 h drug exposure, one value per biological replicate, read-out: IC50 values. The series is classed as cell-based, human. As to the method:
(§1) Murine colorectal (MC38 (ENH204-FP)) cancer cell lines were obtained from Kerafast. Murine head and neck MOC1 and MOC2 were generously provided by Dr. R. Uppaluri. CAL27 PIK3CA H1047R expressing cells and 4MOSC1 cells were generated in Dr. Gutkind’s laboratory and previously characterized[42],[55]. […] MC38 cells were cultured in DMEM supplemented with 10% FBS, 1 mM sodium pyruvate (Gibco), 1% non-essential amino acids (Gibco), and 10 mM HEPES (Gibco). MOC1 and MOC2 cells were cultured in IMDM (Lonza)/F-12K nutrient mixture at a 2:1 mixture with 5% FBS, 5 ng/ml EGF (EMD Millipore), 400 ng/ml hydrocortisone (Sigma), and […] insulin (Sigma). On receipt, each cell line was expanded, cryopreserved as low passage stocks, and routinely tested for mycoplasma. Cisplatin (Enzo Biosciences), paclitaxel (Sigma), and MMAE (Concortis) were reconstituted in DMSO. Clinical-grade CDX3379 was provided by Celldex. Clinical grade cetuximab (Erbitux, Lilly Medical) was obtained from UCSD Moores Cancer Center Pharmacy.
(§2) Cells were plated in 96-well plates and exposed to a drug concentration range for 72 h. Alamar Blue was added to the cells and allowed to incubate for 2–4 h at 37 °C. Plates were analyzed using a plate reader with fluorescence measured at 560 nm. Fractional survival was normalized to untreated control cell fluorescent values. Drug IC50 was calculated using Prism software (GraphPad, La Jolla, CA). Cell viability, cytotoxicity and apoptosis were also measured by ApoTox-Glo Triplex Assay (Promega).
(The colour change of resazurin is a common sign of viable cells or microbes.)

In another series the test system is CAL27. Nature of the series: Cytotoxicity, Alamar Blue assay. The series is classed as cell-based, human. As to conditions: 72 h drug exposure, one value per biological replicate, read-out: IC50 values. As to the method: as §1, §2
A further series has as its system B16 tumors. More on the design: species or system RAG1 KO mice. As to conditions: mouse, in vivo. As to the method: FSC-A FSC-H SCC-H Live Dead-Blue
Representative flow cytometry plots to gate immune cells quantitated in Fig. 4a, b, 4d &
Supplementary Fig. 10b, c. b) Quantification of tumor immune cell identified by flow cytometry on
Tumors harvested on day 19 and immune cells characterized by flow cytometry. c) Tumor
granzyme B expression. Characterized CD8+ T-cells were further gated for granzyme-B staining
(Clone:GB11). In addition, RNA levelsof tumor granzyme-B was analyzed by qPCR. For
Mice implanted with tumor
Log-rank (Mantel-Cox) test.
Source data are provided in Source Data file. […]

Values joined by “and” are separate entries in the source; they are usually repeats but may differ in a detail not shown here. Identical values can stand only once. Non-standard residues stand in square brackets, D forms with d. Residues, ends and D or L forms follow the SMILES beside them. *: point of attachment. Dolaproine = CO[C@@H]([C@@H]1CCCN1)[C@@H](C)C(=O)O; Dil = CC[C@H](C)[C@H](NC)[C@@H](CC(=O)O)OC; X1 = C[C@@H](N*)[C@@H](O)c1ccccc1; NMeV = CN[C@H](C(=O)O)C(C)C

What is called IC50 is the concentration needed to halve the response being measured.

Turning to “CDX3379-MMAE: anti-HER3 antibody CDX3379 with 4 MMAE per antibody via MC-VC-PABC linker, labeled with Cy5”, in the series on MOC2 tumors, the tumor growth entry was “modest tumor growth delay”. Besides, in series [1], the “Tumor MMAE concentration” value is 124.8 and 143.8 and 123.3 and 91.37.

With `CC[C@H](C)[C@@H]([C@@H](CC(=O)N1CCC[C@H]1[C@H](OC)[C@@H](C)C(=O)N[C@H](C)[C@@H](O)c1ccccc1)OC)N(C)C(=O)[C@@H](NC(=O)[C@@H](NC)C(C)C)C(C)C` [MMAE, monomethyl auristatin E] (H-[NMeV]V[Dil][Dolaproine]-X1), the IC50 in the series with Detroit 562 was 0.253 nM and 0.25 nM and 0.189 nM and 0.195 nM; with CAL27, 0.235 nM and 0.239 nM (2×) and 0.237 nM and 0.177 nM and 0.185 nM.

Turning to “cyclo(RGD)fc-MC-HN-peg8-e9-oPLGC(Me)AG-r9-c-(MC-VC-PABC-MMAE)-CONH2 [ACPP-MMAE]”, the “tumor control in RAG1 KO mice” value in the series on B16 tumors is on record as “did not appreciably increase tumor control in RAG1 KO mice compared to IR alone”.
